Converted amounts (≈) assume the structure as drawn. The source made the active and inactive calls. No cut-off for these calls is given here.
Tests used:
Cryptosporidium parvum [1] = assay: Anti-cryptosporidial activity against Cryptosporidium parvum infected in HCT-8 cells pre-infected for 3 hrs followed by compound treatment and measured after 45 hrs by fluorescence microscopy analysis; format: functional, organism-based
[2] = Metabolic stability in human liver microsomes assessed as half life at 2 uM measured up to 30 mins in presence of NADPH by LC-MS/MS analysis; format: ADME, Microsome; details: microsomes, 0.5 h, 2 µM
[3] = Efflux ratio of apparent permeability across basolateral to apical side over apical to basolateral side in […] cells at 10 uM after 2 hrs; format: ADME, cell-based; details: mdckii-mdr1, 2 h, 10 µM
Cryptosporidium parvum [4] = assay: Anti-cryptosporidial activity against Cryptosporidium parvum infected in HCT-8 cells assessed as rate of parasite elimination at above EC90 concentration pre-infected for 24 hrs followed by compound treatment; format: functional, organism-based
[5] = Oral bioavailability in CD1 mouse jejunum at 10 mg/kg measured upto 24 hrs by LC-MS/MS anlaysis; format: ADME, organism-based; details: in vivo
hERG (KCNH2) [6] = target: T1, hERG (KCNH2) (Homo sapiens, UniProt Q12809); assay: Inhibition of human ERG expressed in CHO cells at 100 uM by automated patch clamp electrophysiology assay relative to control; format: cell-based; details: CHO cells that express hERG
T1 sequence (Q12809 whole entry): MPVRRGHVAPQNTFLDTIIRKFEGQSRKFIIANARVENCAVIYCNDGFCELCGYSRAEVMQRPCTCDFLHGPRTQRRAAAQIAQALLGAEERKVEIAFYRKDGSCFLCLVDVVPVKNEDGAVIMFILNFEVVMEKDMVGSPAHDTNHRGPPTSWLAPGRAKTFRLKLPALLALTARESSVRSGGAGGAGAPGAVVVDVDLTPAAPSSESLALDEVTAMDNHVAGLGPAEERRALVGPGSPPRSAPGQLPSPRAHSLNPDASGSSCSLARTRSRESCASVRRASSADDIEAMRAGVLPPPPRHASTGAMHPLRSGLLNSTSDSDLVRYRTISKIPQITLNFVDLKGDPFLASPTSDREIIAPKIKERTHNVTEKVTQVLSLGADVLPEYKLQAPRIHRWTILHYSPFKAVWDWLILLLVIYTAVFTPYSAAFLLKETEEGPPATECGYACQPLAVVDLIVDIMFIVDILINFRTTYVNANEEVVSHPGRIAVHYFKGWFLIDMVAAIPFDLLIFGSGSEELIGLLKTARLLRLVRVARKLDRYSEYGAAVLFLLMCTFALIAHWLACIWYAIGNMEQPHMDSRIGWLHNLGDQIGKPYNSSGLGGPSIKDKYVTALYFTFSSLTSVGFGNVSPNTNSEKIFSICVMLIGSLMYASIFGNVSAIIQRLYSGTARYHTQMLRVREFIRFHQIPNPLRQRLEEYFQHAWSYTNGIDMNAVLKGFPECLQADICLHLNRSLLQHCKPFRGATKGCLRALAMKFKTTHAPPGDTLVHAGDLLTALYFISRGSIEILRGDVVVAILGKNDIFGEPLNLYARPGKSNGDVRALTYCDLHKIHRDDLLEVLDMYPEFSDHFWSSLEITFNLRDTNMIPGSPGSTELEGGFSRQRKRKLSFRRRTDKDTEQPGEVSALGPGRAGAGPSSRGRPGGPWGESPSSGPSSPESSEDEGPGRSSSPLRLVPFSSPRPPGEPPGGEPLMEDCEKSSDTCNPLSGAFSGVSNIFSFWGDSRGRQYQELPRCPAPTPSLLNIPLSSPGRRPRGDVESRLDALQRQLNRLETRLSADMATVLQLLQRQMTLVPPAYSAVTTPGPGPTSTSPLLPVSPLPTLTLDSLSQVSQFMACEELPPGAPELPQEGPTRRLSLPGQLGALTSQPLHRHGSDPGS

[7] = Kinetic aqueous solubility of the compound in pH 7.4; format: physicochemical; details: buffer, read-out: Kinetic_solubility
[8] = AUC in CD1 mouse plasma at 10 mg/kg, po measured upto 24 hrs by LC-MS/MS anlaysis; format: ADME, organism-based; set-up: route oral, dose 10 mg/kg, time <=24; details: in vivo
hERG (KCNH2) [9] = target: T1, hERG (KCNH2); assay: Displacement of [3H]-dofetilide from human ERG at 10 uM relative to control; details: probe [3H]-dofetilide
Cryptosporidium parvum [10] = assay: Anti-cryptosporidial activity against Cryptosporidium parvum infected in NSG mouse assessed as reduction in parasite infection at 50 mg/kg, po administered twice daily for 11 days by qPCR analysis; format: functional; set-up: scale not given: the % may be the effect or the level left; details: time 11 day
HCT-8 = assay: Cytotoxicity against human HCT8 cells assessed as reduction in cell viability after 48 hrs by CellTiter aqueous assay; format: cell-based; details: hct-8, 48 h
[11] = Protein binding in mouse plasma at 10 uM after 6 hrs by LC-MS/MS based equilibrium dialysis method; format: ADME, cell-free
[12] = Cmax in CD1 mouse plasma at 1 mg/kg, iv measured upto 6 hrs by LC-MS/MS anlaysis; format: ADME, organism-based; set-up: route intravenous, dose 1 mg/kg, time <=6; details: in vivo
[13] = Cmax in CD1 mouse jejunum at 10 mg/kg, po measured upto 24 hrs by LC-MS/MS anlaysis; format: ADME, organism-based; set-up: route oral, dose 10 mg/kg, time <=24; details: in vivo
[14] = AUC in CD1 mouse jejunum at 10 mg/kg, po measured upto 24 hrs by LC-MS/MS anlaysis; format: ADME, organism-based; set-up: route oral, dose 10 mg/kg, time <=24; details: in vivo
[15] = AUC in CD1 mouse plasma at 1 mg/kg, iv measured upto 6 hrs by LC-MS/MS anlaysis; format: ADME, organism-based; set-up: route intravenous, dose 1 mg/kg, time <=6; details: in vivo
[16] = Cmax in CD1 mouse plasma at 10 mg/kg, po measured upto 24 hrs by LC-MS/MS anlaysis; format: ADME, organism-based; set-up: route oral, dose 10 mg/kg, time <=24; details: in vivo
hERG (KCNH2) [17] = target: T1, hERG (KCNH2); assay: Antagonist activity at human ERG relative to control
hERG (KCNH2) [18] = target: T1, hERG (KCNH2); assay: Inhibition of human ERG expressed in CHO cells at 10 uM by automated patch clamp electrophysiology assay relative to control; format: cell-based; details: CHO cells that express hERG
[19] = Cmax in CD1 mouse jejunum at 1 mg/kg, iv measured upto 6 hrs by LC-MS/MS anlaysis; format: ADME, organism-based; set-up: route intravenous, dose 1 mg/kg, time <=6; details: in vivo
hERG (KCNH2) [20] = target: T1, hERG (KCNH2); assay: Inhibition of human ERG expressed in CHO cells at 1 uM by automated patch clamp electrophysiology assay relative to control; format: cell-based; details: CHO cells that express hERG
CYP2C19 = CYP2C19 (Homo sapiens, UniProt P33261); assay: Inhibition of CYP2C19 (unknown origin) at 10 uM relative to control; format: ADME
Sequence of CYP2C19 (P33261 whole entry): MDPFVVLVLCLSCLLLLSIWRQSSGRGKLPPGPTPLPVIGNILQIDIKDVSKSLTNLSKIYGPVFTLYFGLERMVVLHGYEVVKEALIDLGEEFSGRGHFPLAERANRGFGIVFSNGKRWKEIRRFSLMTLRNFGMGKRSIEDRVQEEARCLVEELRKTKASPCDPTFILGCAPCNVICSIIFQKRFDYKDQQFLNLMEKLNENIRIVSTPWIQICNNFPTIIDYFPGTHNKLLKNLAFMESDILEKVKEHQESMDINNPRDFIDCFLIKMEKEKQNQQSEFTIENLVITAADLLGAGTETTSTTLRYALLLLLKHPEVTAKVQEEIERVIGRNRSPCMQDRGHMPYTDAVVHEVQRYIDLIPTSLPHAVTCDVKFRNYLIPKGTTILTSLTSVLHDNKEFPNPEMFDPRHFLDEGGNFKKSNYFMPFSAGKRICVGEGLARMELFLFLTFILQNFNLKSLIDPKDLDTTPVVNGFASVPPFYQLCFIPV

[21] = Protein binding in human plasma at 10 uM after 6 hrs by LC-MS/MS based equilibrium dialysis method; format: ADME, cell-free
CYP2C9 = CYP2C9 (Homo sapiens, UniProt P11712); assay: Inhibition of CYP2C9 (unknown origin) at 10 uM relative to control; format: ADME
Sequence of CYP2C9 (P11712 whole entry): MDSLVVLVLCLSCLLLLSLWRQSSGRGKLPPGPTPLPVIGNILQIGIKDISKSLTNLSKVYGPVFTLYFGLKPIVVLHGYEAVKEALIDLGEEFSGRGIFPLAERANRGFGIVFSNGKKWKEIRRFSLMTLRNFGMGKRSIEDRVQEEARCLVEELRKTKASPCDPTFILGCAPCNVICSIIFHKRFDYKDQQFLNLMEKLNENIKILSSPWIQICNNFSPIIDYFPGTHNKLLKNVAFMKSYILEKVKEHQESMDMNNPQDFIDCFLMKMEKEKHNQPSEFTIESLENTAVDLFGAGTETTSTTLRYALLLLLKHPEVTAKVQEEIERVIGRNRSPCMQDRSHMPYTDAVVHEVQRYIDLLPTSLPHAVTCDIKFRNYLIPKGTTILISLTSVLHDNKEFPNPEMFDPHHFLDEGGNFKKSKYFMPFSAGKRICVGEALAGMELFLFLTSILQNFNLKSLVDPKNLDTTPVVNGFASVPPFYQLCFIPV

[22] = Half life in CD1 mouse plasma at 1 mg/kg, iv measured upto 6 hrs by LC-MS/MS anlaysis; format: ADME, organism-based; details: in vivo
[23] = Volume of distribution in CD1 mouse plasma at 1 mg/kg, iv measured upto 6 hrs by LC-MS/MS anlaysis; format: ADME, organism-based; details: in vivo
Cryptosporidium parvum [24] = assay: Anti-cryptosporidial activity against Cryptosporidium parvum infected in NSG mouse assessed as reduction in parasite infection at 50 mg/kg, po administered twice daily for 21 days by qPCR analysis; format: functional, organism-based; details: time 21.0 day
[25] = AUC in CD1 mouse jejunum at 1 mg/kg, iv measured upto 6 hrs by LC-MS/MS anlaysis; format: ADME, organism-based; set-up: route intravenous, dose 1 mg/kg, time <=6; details: in vivo
[26] = Half life in CD1 mouse jejunum at 1 mg/kg, iv measured upto 6 hrs by LC-MS/MS anlaysis; format: ADME, organism-based; details: in vivo
[27] = target: Voltage-gated inwardly rectifying potassium channel KCNH2 (Homo sapiens, UniProt Q12809); assay: Antagonist activity at human ERG
Sequence of Voltage-gated inwardly rectifying potassium channel KCNH2 (Q12809 whole entry): as the sequence (Q12809 whole entry) above

[28] = Metabolic stability in mouse liver microsomes assessed as half life at 2 uM measured up to 30 mins in presence of NADPH by LC-MS/MS analysis; format: ADME, Microsome; details: 0.5 h
Cryptosporidium parvum [29] = assay: Anti-cryptosporidial activity against Cryptosporidium parvum infected in HCT-8 cells assessed as rate of parasite elimination at 6 times of EC90 concentration pre-infected for 24 hrs followed by compound treatment; format: functional, organism-based
[30] = Volume of distribution in CD1 mouse jejunum at 1 mg/kg, iv measured upto 6 hrs by LC-MS/MS anlaysis; format: ADME, organism-based; details: in vivo
Cryptosporidium parvum [31] = assay: Anti-cryptosporidial activity against Cryptosporidium parvum infected in HCT-8 cells assessed as rate of parasite elimination at 6 times of EC90 concentration pre-infected for 24 hrs followed by compound treatment measured after 98 hrs; format: functional

## O=C(C(=O)N1CCN(c2ccc3nncn3n2)CC1)c1ccc(Cl)c(Cl)c1
Cryptosporidium parvum [1]
  EC50: 2.2 µM

## O=C(Nc1ccc(Cl)c(Cl)c1)N1CCCN(c2ccc3nncn3n2)CC1
Cryptosporidium parvum [1]
  EC50: > 25 µM

## O=C(Cc1ccc(Cl)c(Cl)c1)N1CCC(c2ccc3nncn3n2)CC1
[2]
  t1/2: 7.8 min
Cryptosporidium parvum [1]
  EC50: 11 µM
[3]
  Ratio: 9.8

## CC1CN(c2ccc3nncn3n2)CCN1C(=O)Cc1ccc(Cl)c(Cl)c1 (stereo not given)
Cryptosporidium parvum [1]
  EC50: 7.1 µM

## O=C(NC1CCN(c2ccc3nncn3n2)CC1)c1ccc(Cl)c(Cl)c1
Cryptosporidium parvum [1]
  EC50: 12 µM

## CC(=O)Oc1ccccc1C(=O)Nc1ncc([N+](=O)[O-])s1 [NITAZOXANIDE]
Cryptosporidium parvum [4]
  Activity: Active
Cryptosporidium parvum [1]
  EC50: 2 µM

## CC1CN(c2ccc3nncn3n2)CCN1C(=O)Nc1ccc(Cl)c(Cl)c1 (stereo not given)
Cryptosporidium parvum [1]
  EC50: 32 µM

## O=S(=O)(Cc1ccc(Cl)c(Cl)c1)N1CCN(c2ccc3nncn3n2)CC1
Cryptosporidium parvum [1]
  EC50: > 25 µM

## O=C(Cc1ccc([N+](=O)[O-])cc1)N1CCN(c2ccc3nncn3n2)CC1
Cryptosporidium parvum [1]
  EC50: 2.5 µM

## O=C(Cc1ccc(Cl)c(Cl)c1)N1CCCN(c2ccc3nncn3n2)CC1
Cryptosporidium parvum [1]
  EC50: 12 µM

## O=C(Cc1ccc2ccccc2c1)N1CCN(c2ccc3nncn3n2)CC1
Cryptosporidium parvum [1]
  EC50: 14 µM

## O=C(Cc1ccc(Cl)c(Cl)c1)N1CCN(c2ccc3nncn3n2)CC1
[5]
  F: 1%
hERG (KCNH2) [6]
  inhibition at 100 µM: 94%
[7]
  solubility kinetic: 18 µM (≈ 7.04 µg/mL)
[8]
  AUC: 5200 ng·h/mL
hERG (KCNH2) [9]
  inhibition at 10 µM: 11%
[2]
  t1/2: > 30 min
Cryptosporidium parvum [10]
  Activity: >99%
HCT-8
  CC50: > 100 µM
[11]
  PPB: 92.4%
[12]
  Cmax: 17000 ng/mL
[13]
  Cmax: 36000 ng/mL
[14]
  AUC: 240000 ng·h/mL
[15]
  AUC: 50000 ng·h/mL
[16]
  Cmax: 1500 ng/mL
hERG (KCNH2) [17]
  Emax: 79%
hERG (KCNH2) [18]
  inhibition at 10 µM: 67%
[19]
  Cmax: 15000 ng/mL
hERG (KCNH2) [20]
  inhibition at 1 µM: 19%
CYP2C19
  inhibition at 10 µM: 44%
[21]
  PPB: 97.8%
CYP2C9
  inhibition at 10 µM: 31%
[22]
  t1/2: 132 min
[23]
  Vd: 0.062 L/kg
Cryptosporidium parvum [24]
  Activity: Active
[25]
  AUC: 55000 ng·h/mL
[26]
  t1/2: 324 min
[27]
  EC50: 7.7 µM
[28]
  t1/2: > 30 min
Cryptosporidium parvum [29]
  Activity: Active
[30]
  Vd: 0.13 L/kg
Cryptosporidium parvum [31]
  Activity: 99.9%

## COc1cccc(CC(=O)N2CCN(c3ccc4nncn4n3)CC2)c1
Cryptosporidium parvum [1]
  EC50: 18 µM

## O=C(Cc1cccc2ccccc12)N1CCN(c2ccc3nncn3n2)CC1
Cryptosporidium parvum [1]
  EC50: 17.1 µM

## N#Cc1ccc(CC(=O)N2CCN(c3ccc4nncn4n3)CC2)cc1
Cryptosporidium parvum [1]
  EC50: 11 µM

## O=C(Cc1ccc(Cl)c(Cl)c1)N1CC=C(c2ccc3nncn3n2)CC1
hERG (KCNH2) [9]
  inhibition at 10 µM: 9%
Cryptosporidium parvum [1]
  EC50: 16 µM
